From ChEMBL document CHEMBL1140414, “Molecular modeling, synthesis, and preliminary biological evaluation of glutathione-S-transferase inhibitors as potential therapeutic agents” (J Med Chem, 2005)

Columns and labels:
[1] = target: T1, Glutathione S-transferase P (Homo sapiens, UniProt P09211); test: Inhibition constant against glutathione S-transferase pi using GSH (0.1-3mM), 1 mM 1-chloro-2,4-dinitrobenzene
[2] = target: T1, Glutathione S-transferase P; test: Inhibition against glutathione S-transferase pi using GSH (0.1-3mM), 1 mM 1-chloro-2,4-dinitrobenzene

T1 sequence (P09211 whole entry): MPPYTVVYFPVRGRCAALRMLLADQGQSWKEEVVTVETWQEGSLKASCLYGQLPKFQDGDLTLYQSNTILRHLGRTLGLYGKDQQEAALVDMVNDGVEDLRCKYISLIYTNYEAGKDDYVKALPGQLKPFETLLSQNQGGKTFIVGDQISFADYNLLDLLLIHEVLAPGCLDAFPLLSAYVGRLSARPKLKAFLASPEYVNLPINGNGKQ

Ki [1] [µM] | IC50 [2] [µM] | SMILES
187 | 280 | NC(CCC(=O)NC(CSCCO)C(=O)NCC(=O)O)C(=O)O (stereo not drawn)
0.66 | 5.5 | NC(CCC(=O)NC(CSC(C(=O)O)c1ccccc1)C(=O)NCC(=O)O)C(=O)O (stereo not drawn)
0.49 | 4.7 | NC(CCC(=O)NC(CSCC(O)c1ccccc1)C(=O)NCC(=O)O)C(=O)O (stereo not drawn)
1.11 | 9 | NC(CCC(=O)NC(CSC(CO)c1ccccc1)C(=O)NCC(=O)O)C(=O)O (stereo not drawn)
